Measurements as given in patent publication US20030181449A1 (priority 2003, published 2003).
Values joined by “and” are separate entries in the source; they are usually repeats but may differ in a detail not shown here. Equal values may be shown once. Read-outs that look alike come from different tables or passages of the source.

Columns and labels:
[1] = molecular target: T1, NMDA receptor glycine site (Rattus norvegicus, UniProt P35439); experiment: Test A: Inhibition of binding of [3H]-MDL105,519 to brain membranes
T1 construct: The rat brain membranes used in the experiments were obtained from Analytical Biological Services Inc; tissue Analytical Biological Services Inc; host or cells: rat brain membranes (cerebral cortex and hippocampus, male Sprague Dawley rats)
Description: Test A: Inhibition of Binding of [^3H]-MDL105,519:
Binding of compounds to the NMDA receptor glycine site may be assessed by measuring the ability of test compounds to inhibit the binding of tritiated MDL105,519 to brain membranes bearing the receptor.
Briefly, fresh brain tissue including cerebral cortex and hippocampus from male Sprague Dawley rats was homogenized in 0.32 M sucrose and centrifuged at low speed to separate cellular membranes from other cellular components. The membranes were then washed 3 times using deionized water, followed by treatment with 0.04% Triton X-100. Finally, membranes were washed six times in 50 mM Tris citrate buffer, pH 7.4, and frozen at −80° C. until use.
[^3H]MDL105,519 (72 Ci/mmol) was purchased from Amersham. Cold MDL105,519 was purchased from Sigma/RBI. […] On the day of the experiment, brain membranes were thawed at room temperature and suspended in 50 mM tris acetate buffer, pH 7.4 (“TAB”). Seventy-five micro grams per milliliter protein (by using the BioRad dye) were used for competition binding. The experiments were carried out using 96-well plates. […] Non specific binding was determined by using 100 μM of unlabeled MDL105,519. […] After incubation, unbound [^3H]MDL105,519 was removed by filtration onto GF/B Unifilter plates using a Packard harvester. Filters were washed four times with ice cold TAB (total of 1.2 mL buffer). The plates were dried overnight at room temperature and bound radioactivity was measured on a Packard TopCount after the addition of 45 μL per well of the MICROSCINT O.
Human Brain Membranes: Human brain membranes were obtained from Analytical Biological Services Inc., and assays were performed as described for rat membranes.
Data analysis: Data was analyzed using a Microsoft Excel spreadsheet and GraphPad Prizm software and potency of compounds is expressed as the Ki (nM).

[2] = system: CCI rats (thermal hyperalgesia); experiment: Test C: Neuropathic pain model (Chronic Constriction Injury), thermal hyperalgesia, paw withdrawal latency; assay type: in vivo, rat; settings: oral; for Test C (% Inh.): percent decrease in hyperalgesia: at the MED; for Test C MED (minimum effective dose): three times daily for 5 days
Description: Test C: Neuropathic Pain Model (Chronic Constriction Injury):
The anti-hyperalgesic properties of a compound may be tested with the Chronic Constriction Injury (“CCI”) model. The test is a model for neuropathic pain associated with nerve injuries that can arise directly from trauma and compression, or indirectly from a wide range of diseases such as infection, cancer, metabolic conditions, toxins, nutritional deficiencies, immunological dysfunction, and musculoskeletal changes. In the model a unilateral peripheral hyperalgesia is produced in rats by nerve ligation (G. J. Bennett, et al., Pain 33, 87-107 (1988)).
Procedurally, Sprague-Dawley rats (250-350 g) are anesthetized with sodium pentobarbital and the common sciatic nerve is exposed at the level of the mid thigh by blunt dissection through the biceps femoris. A section of nerve (about 7 mm), proximal to the sciatic trifucation, is freed of tissue and ligated at four positions with chromic gut suture. The suture is tied with about 1 mm spacing between ligatures. The incision is closed in layers and the animals are allowed to recuperate. Thermal hyperalgesia is measured using a paw-withdrawal test (K. Hargreaves, et al., Pain 32, 77-88 (1988)). To perform the test, animals are habituated on an elevated glass floor. A radiant heat source is aimed at the mid-plantar hindpaw (sciatic nerve territory) through the glass floor with a 20 second cut-off used to prevent injury to the skin. The latencies for the withdrawal reflex in both hind paws are recorded.
Injured paws with ligated nerves show shorter paw withdrawal latencies compared to the uninjured or sham operated paws. Responses to test compounds are evaluated at different times after oral administration to determine the onset and duration of compound effect. When performing the test, groups of CCI rats receive either vehicle or the test compound orally three times daily for 5 days. Paw withdrawal latencies are measured each day 10 min before and 2 or 3 hr. after the first daily dose. Compound efficacy is expressed as mean percentage decrease of hyperalgesia compared to that of vehicle-treated animals, calculated as follows:
(Mean of vehicle group−Mean of compound group)×100/(Mean of vehicle group).
Data analysis was performed by the multiple means comparison test (Dunnett's test) and results are expressed and compound potencies are expressed as the MED (minimum effective dose), in mg/Kg/day, that yields a percent (%) decrease in hyperalgesia that is statistically significant.

[3] = system: formalin-induced nociceptive behaviors in rats; experiment: Test B: Formalin test (formalin-induced paw flinches); assay type: in vivo, rat; settings: dose 200 (unit not given), dosed three hours prior to formalin
Description: The Formalin test is an assay that assesses the capacity of a compound to inhibit formalin-induced nociceptive behaviors in rats (D. Dubuisson, et al., Pain 4, 161-174 (1977); H. Wheeler-Aceto et al., Psychopharmacology 104, 3544 (1991); T. J. Coderre, et al., Pain 54, 43-50 (1993)). In the test, two distinctive phases of formalin-induced behaviors are observed. A first phase response, caused by acute nociception to the noxious chemical (formalin) injected into the paw, occurs between zero and five minutes. A quiescent period of 5 to 15 min post injection follows. After the quiescent period a second phase response, caused by sensitization of the central neurons in the dorsal horn, occurs after 15 minutes and lasts up to 60 minutes. Sensitization of the central neurons in the spine augments a noxious afferent input and causes a stronger pain barrage to be transmitted to the brain. Therefore, inhibition of the second phase response indicates a central mechanism of drug action.
The procedure for the formalin test is as follows: male rats are placed in a plexiglass chamber and observed for 30-45 min. to observe their baseline activity. Animals are either pretreated with vehicle or with different doses of a test compound. Animals are dosed with vehicle or test compound three hours prior to injection of 0.05 mL of sterile 1% formalin under the dorsal skin of a hind paw. The number of paw flinches (responses) during the first phase (0-5 min.) and the second phase (20-35 min.) are scored and recorded. Flinch response is compared with the mean score of a saline control group and calculated as percentage inhibition. The ED50 is the dose of compound which produces 50% inhibition of nociceptive response in the first or second phase response. First phase responses may be inhibited by compounds that act peripherally and by compounds that act centrally. Second phase response are inhibited by centrally active compounds.
Student's t-test was used for statistical analysis to determine the significance of compound effects. Data are reported as a dose that yielded a % inhibition of a response.

[4] = inhibition of 1.2 nM [3H]MDL105,519 binding, brain membranes (rat or human not given)

Ki [1, 4] | SMILES | further results
65 nM | CON(C)C(=O)c1cccc(Cn2nc(O)c3[nH]c4cc(Cl)ccc4c(=O)c3c2=O)c1 | –
117 nM | O=c1c2ccc(Cl)cc2[nH]c2c(O)nn(Cc3ccc4nc[nH]c4c3)c(=O)c12 [Ex. 5, 7-Chloro-4-hydroxy-2-(benzimidazol-5-ylmethyl)-1,2,5,10-tetrahydropyridazino[4,5-b]quinoline-1,10-dione methanesulfonate] | –
67.9 nM and 62.5 nM | Cc1cc(Cn2nc(O)c3[nH]c4cc(Cl)ccc4c(=O)c3c2=O)ccc1O [Ex. 6, 7-Chloro-4-hydroxy-2-(4-hydroxy-3-methyl-benzyl)-1,2,5,10-tetrahydropyridazino[4,5-b]quinoline-1,10-dione] | –
15.6 nM | O=C(Nc1cccc(Cn2nc(O)c3[nH]c4cc(Cl)ccc4c(=O)c3c2=O)c1)N1CCCC1 [Ex. 15, 7-Chloro-4-hydroxy-2-(3-pyrrolidinylcarboxamide)phenylmethyl-1,2,5,10-tetrahydropyridazino[4,5-b]quinoline-1,10-dione] | –
141 nM | COCCNC(=O)c1ccc(Cn2nc(O)c3[nH]c4cc(Cl)ccc4c(=O)c3c2=O)cc1 [Ex. 23] | –
126 nM | CNC(=O)c1cccc(Cn2nc(O)c3[nH]c4cc(Cl)ccc4c(=O)c3c2=O)c1 [Ex. 25, 7-Chloro-4-hydroxy-2-[3-(methylaminocarbonyl)-benzyl]-1,2,5,10-tetrahydropyridazino[4,5-b]quinoline-1,10-dione] | –
191 nM | COCCN(CCOC)C(=O)c1cccc(Cn2nc(O)c3[nH]c4cc(Cl)ccc4c(=O)c3c2=O)c1 [Ex. 27, 7-Chloro-4-hydroxy-2-[3-(di-(2-methoxy)ethyl)aminocarbonylbenzyl]-1,2,5,10-tetrahydropyridazino[4,5-b]quinoline-1,10-dione] | –
98 nM | CC(=O)Nc1ccc(Cn2nc(O)c3[nH]c4cc(Cl)ccc4c(=O)c3c2=O)cc1 [Ex. 30, 7-Chloro-4-hydroxy-2-[4-(methylcarbonyl-amino)-benzyl]-1,2,5,10-tetrahydropyridazino[4,5-b]quinoline-1,10-dione] | –

The next lines start with the compound.

SMILES | Ki [1, 4] | further results
CC(C)NC(=O)c1ccc(Cn2nc(O)c3[nH]c4cc(Cl)ccc4c(=O)c3c2=O)cc1 [EX. 31, 7-chloro-4-hydroxy-2-(4-isopropylcarboxamide)phenylmethyl-1,2,5,10-tetrahydropyridazino[4,5-b]quinoline-1,10-dione] | 41 nM | –
O=C(NCc1ccco1)c1ccc(Cn2nc(O)c3[nH]c4cc(Cl)ccc4c(=O)c3c2=O)cc1 [Ex. 3, 7-Chloro-4hydroxy-2-(4-(furan-2-ylmethyl)aminocarbonyl)-benzyl-1,2,5,10-tetrahydropyridazino[4,5-b]quinoline-1,10-dione] | – | Test C (% Inh.): percent decrease in hyperalgesia [2]: 96%; Test C MED (minimum effective dose) [2]: 30 mg/kg/day; Ki [1]: 153 nM; Test B First phase Dose (% Inh.): % inhibition of nociceptive response ([3]; first phase (0-5 min)): 200 (33%); Test B Second phase Dose (% Inh.): % inhibition of nociceptive response ([3]; second phase (20-35 min)): 200 (−18%)
CSc1ccccc1Cn1nc(O)c2nc3cc(Cl)ccc3c(O)c2c1=O [Ex. 7, 7-Chloro-4,10-dihydroxy-2-[(2-methylthio)phenylmethyl]-2-hydropyridazino[4,5-b]quinoline-1-one] | 111 nM | melting point: 290 to 292 °C
COC(=O)c1c(OC)cc(Cn2nc(O)c3[nH]c4cc(Cl)ccc4c(=O)c3c2=O)cc1OC [Ex. 8, 7-Chloro-2-(4-(2,6-dimethoxy)methylbenzoate)4hydroxy-1,2,5,10-tetrahydropyridazino[4,5-b]quinoline-1,10-dione] | 35 nM | –
CC(C)OC(=O)c1ccc(Cn2nc(O)c3[nH]c4cc(Cl)ccc4c(=O)c3c2=O)cc1 [Ex. 9, 7-Chloro-4-hydroxy-2-(4-iso-propoxycarbonylbenzyl)-1,2,5,10-tetrahydropyridazino[4,5-b]quinoline-1,10-dione] | 91 nM | –
CN(C)C(=O)Nc1ccc(Cn2nc(O)c3[nH]c4cc(Cl)ccc4c(=O)c3c2=O)cc1 [Ex. 11, 7-chlorohydroxy-2-(4-dimethylaminocarboxamide)phenylmethyl-1,2,5,10-tetrahydropyridazino[4,5-b]quinoline-1,10-dione] | – | Test C (% Inh.): percent decrease in hyperalgesia [2]: 80%; Test C MED (minimum effective dose) [2]: 15 mg/kg/day
O=C(Nc1ccc(Cn2nc(O)c3[nH]c4cc(Cl)ccc4c(=O)c3c2=O)cc1)N1CCCC1 [Ex. 13, 7-chloro-4-hydroxy-2-(4pyrrolidinylcarboxamide)phenylmethyl-1,2,5,10-tetrahydropyridazino[4,5-b]quinoline-1,10-dione] | 67.5 nM | –
O=C(Nc1ccccc1)Nc1cccc(Cn2nc(O)c3[nH]c4cc(Cl)ccc4c(=O)c3c2=O)c1 [Ex. 18, 7-chloro-4-hydroxy-2-(3-phenylaminocarboxamide)phenylmethyl-1,2,5,10-tetrahydropyridazino[4,5-b]quinoline-1,10-dione] | 79.9 nM | –
O=C(Nc1cccc(Cn2nc(O)c3[nH]c4cc(Cl)ccc4c(=O)c3c2=O)c1)NC1CCCCC1 [Ex. 19, 7-chloro-4-hydroxy-2-(3-cyclohexylaminocarboxamide)phenylmethyl-1,2,5,10-tetrahydropyridazino[4,5-b]quinoline-1,10-dione] | 33.3 nM | –
O=c1c2ccc(Cl)cc2[nH]c2c(O)nn(Cc3ccc(I)cc3)c(=O)c12 [Ex. 20, 7-Chloro-4-hydroxy-2-(4-iodophenylmethyl)-1,2,5,10-tetrahydropyridazino[4,5-b]quinoline-1,10-dione] | 199 nM | –
O=c1c2ccc(Cl)cc2[nH]c2c(O)nn(Cc3ccc(C#CCO)cc3)c(=O)c12 [Ex. 21] | 1 nM | –
O=C(c1ccc(Cn2nc(O)c3[nH]c4cc(Cl)ccc4c(=O)c3c2=O)cc1)N1CCOCC1 [Ex. 29, 7-Chloro-4-hydroxy-2-[4-(morpholine-4-carbonyl)-benzyl]-1,2,5,10-tetrahydropyridazino[4,5-b]quinoline-1,10-dione] | 88 nM | –
